According to patent US10266499B2, “Imidazole derivatives as prodrugs of diclofenac” (priority 2014, dated 2019):
≈ marks a conversion by molar mass, not a printed value. Read-outs that look alike come from different tables or passages of the source.

Key:
[1] = system: osteoarthritis pain induced by a single injection of MIA; assay: Monosodium iodoacetate (MIA) model of osteoarthritis, joint compression thresholds; type: in vivo, Sprague-Dawley rats; details: for mean joint compression thresholds compared to the vehicle group: 0.3 mg intra-articular; for reversal of osteoarthritis pain compared to vehicle treated animals: single intra-articular administration of 0.3 mg
Source text: Osteoarthritis is the most common form of joint disease. Nearly one third of adults in the United States suffer from osteoarthritis and it is the most common cause of disability in adults in the United States. The monosodium iodoacetate (MIA) model of osteoarthritis described here produces changes in the structure and integrity of the affected cartilage that is very similar to what is seen in human osteoarthritis. Sodium iodoacetate is a metabolic inhibitor that, when injected into the joint space, selectively kills chondrocytes, the cells that form cartilage. Over a period of 2-3 weeks, the loss of cartilage produces a state highly analogous to human osteoarthritis characterized by joint instability, loss of cartilage, and decreased bone quality around the affected joint. These physiological changes are also accompanied by pain in the affected joint.
In this study, osteoarthritis was induced by a single injection of MIA (2 mg) into the synovium of the left knee, which results in increased sensitivity to pressure. For this particular study, the test compounds were given 14 days post-MIA injection to determine if the test compound can reduce the sensitivity.
• Vehicle (0.01% Tween 80 in phosphate buffer) administered intra-articularly at a dose volume of 30 μl on day 0. • Test articles DPX-1-0008, DPX-1-0011, DPX-1-0018, DPX-1-0020, DPX-1-0023, and DPX-1-0024, administered intra-articularly at a dose of 0.3 mg on day 0. • Diclofenac, administered orally at a dose of 10 mg/kg on day 8 to the vehicle group. Methods
A total of 82 male, Sprague-Dawley rats underwent MIA injection with the goal of having 70 animals available for the pharmacology treatment due to 15% failure of developing a pain state. Fourteen days after MIA injection, animals met the inclusion criteria were assigned to one of seven groups (vehicle, test article DPX-1-0008, DPX-1-0011, DPX-1-0018, DPX-1-0020, DPX-1-0023, and DPX-1-0024) and received the assigned treatment. Joint compression thresholds were assessed prior to MIA injection, prior to dosing with control/test articles, and 1, 2, 4, and 7 days post-dosing. Diclofenac served as the positive control for the study. On day 8, animals in the vehicle group received diclofenac (10 mg/kg, PO) and joint compression were assessed prior to, 1 and 2 hours after dosing for all the animals. All animals were euthanized on day 8 following the behavioral assessment.

[2] = Stability in 80% (v/v) human SF at 37° C.; type: in vitro ADME; details: 80% (v/v) human SF (synovial fluid), 80% SF batch 210513, 37° C.
Experimental: (§1) The stability of the prodrugs was determined in PBS, 80% human SF, 80% human plasma and 80% rat serum at 37° C. 10, 20 or 50 μL of prodrug solution in MeOH was added to 1.0 mL 80% rat serum, 2.5 mL 80% SF or human plasma or 10.0 mL PBS, respectively to give a final prodrug concentration corresponding to the solubility at pH 7.4 at 37° C. Samples were withdrawn at appropriate intervals depending on the rate of degradation. The samples from the biological medias were added to MeCN (1:2 (v:v)) vortexed and centrifuged (5 min, 10000 RPM) and the supernatant analyzed by HPLC. The 700 μL PBS samples were added to 100 μL PBS and mixed before analysis by HPLC. First a pilot study was performed with n=1 to find the appropriate sampling times and thereafter an experiment with n=3. The stability was determined from the decrease in the area of prodrug.

[3] = Stability in 80% (v/v) rat serum at 37° C.; type: in vitro ADME; details: pH 7.4, 80% rat serum
Experimental: as §1

[4] = pKa-value using a GLpKa meter; type: physicochemical; details: 25° C.
[5] = Stability in 80% (v/v) human plasma at 37° C.; type: in vitro ADME; details: 80% plasma
Experimental: as §1

[6] = Solubility in 67 mM phosphate buffer pH 7.4 and in hydrochloride solutions at 37° C.; type: physicochemical; details: for solubility thermodynamic: 37 °C, thermodynamic from solid, read-out: S
Experimental: The determination of the solubility of a prodrug at different pH values of interest according to the present invention is carried by adding excess solid prodrug to a container containing a buffer solution with well-defined pH. The mixture is rotated at constant temperature until an equilibrium between solid prodrug and prodrug in solution has established (that is until the prodrug concentration in the supernatant remains constant). At each measurement the pH of the supernatant is controlled and, if needed, adjusted to the desired pH. In a similar manner the solubility of a prodrug in a tissue fluid including the synovial fluid can be determined. The latter procedure comprises a simple way of testing if the solubility at the selected lower pH is indeed at least 100 times higher than the corresponding solubility in the physiological fluid it is injected into. […] For instance, a decrease in pH from pH 7.4 to 2.0 will result in a 1000-fold increase in the solubility of a base with a pKa value of 5, whereas the solubility will increase by a factor of about 9618 for a base with a pKa value of 6. These predicted alterations in pH dependent solubilities can be calculated from the expression: St=S0*(1+10^pKa-pH) where St is the total solubility at a given pH and S0 is the solubility of the neutral form of the prodrug.
A surplus of prodrug was added to either PBS pH 7.4 or H2O. 0.1 M HCl was added to the H2O to decrease pH to around 3-4. The mixtures were rotated at 37° C. and a sample was withdrawn after approximately 24 and 48 hours or later. The withdrawn sample was filtered through a 0.45 μm Millex®-HV (Millipore, Japan) low protein binding filter (the first 0.5 mL discarded) and a known volume of the sample was diluted. The pH 7.4 samples were diluted with PBS and the acidic samples with mobile phase A (section 2.5). A standard dissolved in PBS was made for the pH 7.4 samples and a standard dissolved in mobile phase A for the acidic samples. The PBS standards used for the standard curves were treated like the samples to avoid false results caused by adsorption. The standard curves were made to cover the concentration interval of the samples after dilution.
From the observed relatively stable concentration of dissolved prodrugs measured in the suspensions after 8-9 day up to 23 days, the solubilities of the prodrugs (Sprodrug) were determined. In this time interval, the rate of appearance of parent drug was determined and an apparent pseudo-zero-order rate constant (k0) was obtained. By assuming that the dissolution rates were much faster than the conversion of the prodrugs to the parent drug, pseudo first-order rate constants (khyd) for cleavage of the prodrugs were calculated according to: […]

[7] = Stability in PBS pH 7.4 at 37° C.; type: physicochemical; details: pH 7.4, PBS pH 7.4, 37° C.
Experimental: as §1

[8] = hydrochloride solution pH 4.35, 37° C., n = 6

Row | half-life at 2.7 μg/ml [2] [min] | half-life at 2.7 μg/ml [3] [min] | pKa [4] | half-life at 2.7 μg/ml [5] [min] | S (mM) ([6]; 67 mM phosphate buffer pH 7.4, 37° C., n = 6) | solubility thermodynamic ([6]; 67 mM phosphate buffer, pH 7.4, aqueous buffer, 67 mM phosphate buffer pH 7.4, 37° C., n = 6) [µg/mL] | S (mM) [6, 8] [mM] | S (μg/ml) [6, 8] [µg/mL] | solubility thermodynamic ([6]; hydrochloride solution, pH 4.35, aqueous buffer, hydrochloride solution pH 4.35, 37° C., n = 6) [µg/mL] | decrease of solubility from pH 4.35 to pH 7.4 ([6]; pH 4.35 vs pH 7.4) [fold] | half-life at 2.7 μg/ml ([7]; read-out: T1/2 (days)) [days] | half-life at 2.7 μg/ml ([7]; read-out: T1/2 (min)) [days] | Structure (SMILES) | mean joint compression thresholds compared to the vehicle group ([1]; 8 days post-dosing) | reversal of osteoarthritis pain compared to vehicle treated animals [1] | mean joint compression thresholds compared to baseline values on day 8 ([1]; 10 mg/kg oral, 1 and 2 hours post-dosing) | mean joint compression thresholds compared to the vehicle group ([1]; 1 day post-dosing)
1 |  |  |  |  |  |  |  |  |  |  |  |  | O=C(Cc1ccccc1Nc1c(Cl)cccc1Cl)OCCCn1ccnc1 [DPX-1-0018] | significantly increased | significantly reversed |  | 
2 |  |  |  |  |  |  |  |  |  |  |  |  | O=C(O)Cc1ccccc1Nc1c(Cl)cccc1Cl [diclofenac] |  |  | significantly increased | 
3 | 39.8 ± 2.8 | 6.1 ± 0.4 | 7.92 | 5.1 ± 0.5 | 0.0064 ± 0.0005 | ~2.7 (≈ 0.00645 mM) | 7.2 ± 0.1 | 3019 | 3020 ± 62 (≈ 7.22 mM) | 1118 | 0.75 | 0.752 ± 0.114 | Cc1ncn(CCOC(=O)Cc2ccccc2Nc2c(Cl)cccc2Cl)c1C [DPX-1-0023] |  | significantly reversed |  | significantly increased
